Reference: patent US20100324319A1, “Tame based chelators and uses thereof” (priority 2003, published 2010)

Assays:
[1] = transchelation experiments with ^111In^3+ labelled chelators, DTPA as competing ligand; assay type: physicochemical; settings: ^111In labelled, after 24 hours
Procedure: (§1) The chelators defined by compounds 8 and 15 in FIG. 1 and as described, supra, were tested in transchelation experiments, using ^111In^3+, and ^67Ga^3+, using the known chelator DTPA as a competing ligand. Labelling was carried out using standard methods.

[2] = transchelation experiments with ^67Ga^3+ labelled chelators, DTPA as competing ligand; assay type: physicochemical; settings: ^67Ga labelled, after 10 days
Procedure: as §1
Labelled TAME-HexA was 94% intact after 10 days, and 99% of the labelled TAME-HexB was stable after the same period of time.

labelled material intact [1]: about 10% | labelled chelator intact / stable [2]: 99%
SMILES: O=C(O)CN(CC(=O)O)CC(CN(CC(=O)O)CC(=O)O)(CN(CC(=O)O)CC(=O)O)CN(Cc1ccccc1)Cc1ccccc1 [Compound 15, 2-[Bis(carboxymethylamino)methyl]-2-[(dibenzylamino)methyl]-propylene-1,3-dinitrilotetraacetic acid]
